Data: patent publication US7713968B2, “Substituted arylcyclopentenes as therapeutic agents” (Allergan, Inc., priority 2008, dated 2010)

System: lashes and adjacent hairs of the treated eye
Assay: Observation of lashes in glaucoma patients treated with bimatoprost in one eye
Type: in vivo
Conditions: glaucoma patient treated in only one eye
Description: In the course of treating patients having glaucoma, treatment may only be appropriate in one eye. […] The lash appearance on the lids of the treated eyes would have appeared quite attractive if it represented a bilateral phenomenon. As a result of its asymmetric nature, the long lashes on one side could be construed as disturbing from a cosmetic standpoint. A systemic examination was preformed as a result of the asymmetric phenomenon. It soon became apparent that this altered appearance was not an isolated finding. […] Definite differences could be identified to varying degrees in the lashes and adjacent hairs of all patients who were taking the drug on a unilateral basis for longer than 6 months.
The changes in the lashes were apparent on gross inspection in several patients once attention was focused on the issue. In those with light colored hair and lashes, the differences were only seen easily with the aid of the high magnification and lighting capabilities of the slit lamp biomicroscope. In the course of glaucoma follow-up examination, attention is generally immediately focused on the eye itself. As a result of the high power magnification needed only one eye is seen at a time and the eye is seen at a high enough power that the lashes are not in focus. […]

Compound: CCNC(=O)CCC/C=C\C[C@@H]1[C@@H](/C=C/[C@@H](O)CCc2ccccc2)[C@H](O)C[C@@H]1O [bimatoprost]
- lashes in the treated eye compared with the non-treated eye: longer, thicker, and fuller
